compound: CC(C)(C)c1cc(NC(=O)Nc2ccc(-c3cn4c(n3)sc3cc(OCCN5CCOCC5)ccc34)cc2)no1 [Quizartinib] + CCNC(=O)c1noc(-c2cc(C(C)C)c(O)cc2O)c1-c1ccc(CN2CCOCC2)cc1 [Luminespib] (partner 0.01 µM); test: relative viability (nuclei count vs DMSO), 5 days (fraction); higher = more cells survive; settings: first compound 0.001 µM
Outline: (§1)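 Values are medians from duplicate plates. Each reflects relative viability, defined as the nuclei count of treated wells over that of vehicle wells. Lung cancer cell lines in 1536-well plates were pin-tool dosed one day after seeding with one drug alone or with a fixed anchor-drug dose plus five library-drug doses (not always all listed) in √10 steps, then fixed, stained and imaged at 4× after 5 days.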

Cell Line	relative viability
EKVX	0.673
EPLC-272H	0.439
NCI-H520	0.232
NCI-H1563	0.516
NCI-H650	0.7
RERF-LC-KJ	1.12
HCC-827	0.647
SK-MES-1	0.736
NCI-H1651	0.811
NCI-H1355	0.814
H3255	0.788
NCI-H647	0.174
NCI-H1623	0.38
LCLC-97TM1	0.7
LXF-289	0.63
LU99A	0.268
NCI-H2023	0.73
NCI-H2228	0.176
NCI-H1437	1.01
NCI-H1395	0.68
NCI-H2009	0.915
NCI-H1915	0.786
NCI-H2347	0.335
LCLC-103H	1

same assay, conditions: first compound 0.003162 µM

Cell Line	relative viability
EKVX	0.805
EPLC-272H	0.418
NCI-H520	0.201
NCI-H1563	0.499
NCI-H650	0.762
RERF-LC-KJ	1.19
HCC-827	0.487
NCI-H2087	0.206
SK-MES-1	0.789
NCI-H1651	0.794
UMC-11	0.954
NCI-H1355	0.689
H3255	0.857
NCI-H1792	0.484
NCI-H647	0.155
NCI-H1623	0.564
LCLC-97TM1	0.6
LXF-289	0.666
LU99A	0.216
NCI-H2023	0.664
NCI-H2228	0.153
NCI-H1437	1.07
NCI-H1395	0.52
NCI-H2009	1.01
NCI-H1915	0.714
NCI-H2347	0.51
LCLC-103H	0.896
HCC-44	0.99

same assay, conditions: first compound 0.01 µM

Cell Line	relative viability
EKVX	0.862
EPLC-272H	0.44
NCI-H520	0.207
NCI-H1563	0.528
NCI-H650	0.91
RERF-LC-KJ	1.38
HCC-827	0.606
NCI-H2087	0.174
SK-MES-1	0.541
NCI-H1651	0.913
UMC-11	1.13
NCI-H1355	0.721
H3255	0.966
NCI-H1792	0.452
NCI-H647	0.213
NCI-H1623	0.455
LCLC-97TM1	0.892
LXF-289	0.778
LU99A	0.234
NCI-H2023	0.759
NCI-H2228	0.139
NCI-H1437	1.09
NCI-H1395	0.841
NCI-H2009	1.07
NCI-H1915	0.828
NCI-H2347	0.41
LCLC-103H	0.989
HCC-44	1.06

same assay, conditions: first compound 0.03162 µM

Cell Line	relative viability
EKVX	0.829
EPLC-272H	0.399
NCI-H520	0.333
NCI-H1563	0.551
NCI-H650	0.68
RERF-LC-KJ	0.96
HCC-827	0.401
NCI-H2087	0.177
NCI-H1651	0.599
UMC-11	1.02
NCI-H1355	0.68
H3255	0.971
NCI-H1792	0.321
NCI-H647	0.327
NCI-H1623	0.57
LCLC-97TM1	0.686
LXF-289	0.699
LU99A	0.257
NCI-H2228	0.214
NCI-H1437	0.782
NCI-H1395	0.71
NCI-H2009	0.967
NCI-H1915	0.829
NCI-H2347	0.495
LCLC-103H	1.04
HCC-44	0.35

same assay, conditions: first compound 0.1 µM

Cell Line	relative viability
EKVX	0.865
EPLC-272H	0.168
NCI-H520	0.255
NCI-H1563	0.584
NCI-H650	0.718
RERF-LC-KJ	1.12
HCC-827	0.738
NCI-H2087	0.156
SK-MES-1	0.646
NCI-H1651	0.92
UMC-11	1.14
NCI-H1355	0.725
H3255	0.875
NCI-H1792	0.444
NCI-H647	0.189
NCI-H1623	0.408
LCLC-97TM1	0.759
LXF-289	0.794
LU99A	0.237
NCI-H2023	0.624
NCI-H2228	0.159
NCI-H1437	0.982
NCI-H1395	0.69
NCI-H2009	1.03
NCI-H1915	0.815
NCI-H2347	0.624
LCLC-103H	0.961
HCC-44	0.996

compound: CC(C)(C)c1cc(NC(=O)Nc2ccc(-c3cn4c(n3)sc3cc(OCCN5CCOCC5)ccc34)cc2)no1 [Quizartinib] + O=C(CCCCCCC(=O)Nc1ccccc1)NO [Vorinostat] (partner 1 µM); test: as above; settings: first compound 0.001 µM
Outline: as §1

Cell Line	relative viability
EPLC-272H	0.427
NCI-H650	0.464
RERF-LC-KJ	0.58
HCC-827	0.797
NCI-H2087	0.751
SK-MES-1	1.01
NCI-H1651	0.535
UMC-11	0.376
NCI-H1355	0.631
NCI-H647	0.567
LCLC-97TM1	0.573
LXF-289	0.645
LU99A	0.373
NCI-H2023	0.61
NCI-H2228	0.51
NCI-H1437	0.606
NCI-H1395	0.685
NCI-H2009	0.673
HCC-366	0.307
NCI-H1915	0.55
NCI-H2347	0.544
LCLC-103H	0.743
HCC-78	0.453
IA-LM	0.71
HCC-44	1.23

same assay, conditions: first compound 0.003162 µM

Cell Line	relative viability
EKVX	0.815
EPLC-272H	0.337
NCI-H520	0.607
NCI-H650	0.445
RERF-LC-KJ	0.707
HCC-827	0.881
NCI-H2087	0.705
SK-MES-1	1
NCI-H1651	0.64
UMC-11	0.333
NCI-H1355	0.607
H3255	0.744
NCI-H647	0.494
LCLC-97TM1	0.52
LXF-289	0.752
LU99A	0.51
NCI-H2023	0.493
NCI-H2228	0.565
NCI-H1437	0.81
NCI-H1395	1.09
NCI-H2009	0.697
HCC-366	0.381
NCI-H1915	0.442
NCI-H2347	0.647
LCLC-103H	0.735
HCC-78	0.44
IA-LM	0.811
HCC-44	1.09

same assay, conditions: first compound 0.01 µM

Cell Line	relative viability
EKVX	0.631
EPLC-272H	0.484
NCI-H520	0.768
NCI-H650	0.416
RERF-LC-KJ	0.751
NCI-H2087	0.676
SK-MES-1	1.2
NCI-H1651	0.551
UMC-11	0.336
NCI-H1355	0.627
H3255	0.732
NCI-H647	0.655
LCLC-97TM1	0.685
LXF-289	0.782
LU99A	0.449
NCI-H2023	0.762
NCI-H2228	0.844
NCI-H1437	0.78
NCI-H1395	0.695
NCI-H2009	0.652
HCC-366	0.302
NCI-H1915	0.49
NCI-H2347	0.715
LCLC-103H	0.663
HCC-78	0.445
HCC-44	1.13

same assay, conditions: first compound 0.03162 µM

Cell Line	relative viability
EKVX	0.69
EPLC-272H	0.58
NCI-H520	0.61
NCI-H650	0.456
RERF-LC-KJ	0.53
HCC-827	0.724
NCI-H2087	0.384
SK-MES-1	0.586
NCI-H1651	0.527
UMC-11	0.338
NCI-H1355	0.647
H3255	0.808
NCI-H647	0.688
LCLC-97TM1	0.677
LXF-289	0.726
LU99A	0.481
NCI-H2228	0.535
NCI-H1437	0.758
NCI-H1395	0.623
NCI-H2009	0.696
HCC-366	0.243
NCI-H1915	0.551
NCI-H2347	0.522
LCLC-103H	0.812
HCC-78	0.419
IA-LM	0.874
HCC-44	1.21

same assay, conditions: first compound 0.1 µM

Cell Line	relative viability
EKVX	0.634
EPLC-272H	0.692
NCI-H520	0.573
NCI-H650	0.54
RERF-LC-KJ	0.691
HCC-827	0.886
NCI-H2087	0.73
SK-MES-1	1.03
NCI-H1651	0.612
UMC-11	0.358
NCI-H1355	0.647
H3255	0.836
NCI-H647	0.998
LCLC-97TM1	0.767
LXF-289	0.738
LU99A	0.502
NCI-H2023	0.772
NCI-H2228	0.629
NCI-H1437	0.591

Source: the supplement of paper PMC10307832
